“And” between values parts separate entries of the source, which are not always exact repeats. Identical values can stand only once. Toxic doses and inconclusive results are not listed.
System: P388 leukemia ip, CD2F1 mice, survival T/C
Experiment: NCI In Vivo Anticancer Drug Screen. Data for tumor model P388 Leukemia (intraperitoneal) in CD2F1 (CDF1) mice
Conditions: endpoint: median survival time, higher = longer survival
Procedure, shortened: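 Mice carrying the transplanted tumor received test compound or vehicle. Survival was recorded in each group, and the value is the treated-group measurement divided by that of the vehicle-treated control group.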

[1] = dose: 50.0 mg/kg/injection, schedule: Q01DX005 (ip), vehicle: saline with Tween-80
[2] = dose: 100.0 mg/kg/injection, schedule: Q01DX005 (ip), vehicle: saline with Tween-80
[3] = dose: 200.0 mg/kg/injection, schedule: Q01DX005 (ip), vehicle: saline with Tween-80
[4] = dose: 100.0 mg/kg/injection, schedule: Q01DX001 (ip), vehicle: saline with Tween-80
[5] = dose: 200.0 mg/kg/injection, schedule: Q01DX001 (ip), vehicle: saline with Tween-80
[6] = dose: 400.0 mg/kg/injection, schedule: Q01DX001 (ip), vehicle: saline with Tween-80
[7] = dose: 60.0 mg/kg/injection, schedule: Q01DX005 (ip), vehicle: saline with Tween-80
[8] = dose: 120.0 mg/kg/injection, schedule: Q01DX005 (ip), vehicle: saline with Tween-80
[9] = dose: 240.0 mg/kg/injection, schedule: Q01DX005 (ip), vehicle: saline with Tween-80
[10] = dose: 50.0 mg/kg/injection, schedule: Q01DX005 (ip), vehicle: Klucel (hydroxypropylcellulose) (HPC)
[11] = dose: 100.0 mg/kg/injection, schedule: Q01DX005 (ip), vehicle: Klucel (hydroxypropylcellulose) (HPC)
[12] = dose: 50.0 mg/kg/injection, schedule: Q01DX009 (ip), vehicle: saline with Tween-80
[13] = dose: 100.0 mg/kg/injection, schedule: Q01DX009 (ip), vehicle: saline with Tween-80
[14] = dose: 200.0 mg/kg/injection, schedule: Q01DX009 (ip), vehicle: saline with Tween-80
[15] = dose: 50.0 mg/kg/injection, schedule: Q01DX009 (ip), vehicle: saline
[16] = dose: 100.0 mg/kg/injection, schedule: Q01DX009 (ip), vehicle: saline
[17] = dose: 200.0 mg/kg/injection, schedule: Q01DX009 (ip), vehicle: saline

COc1ccc(C(=NCCO)c2ccc(O)cc2)c(OC)c1
T/C [1]: 104 % of control
T/C [2]: 92 % of control
T/C [3]: 91 % of control

Cc1[nH]c2ccccc2c1-c1cc(-c2cc(-c3c(C)[nH]c4ccccc34)on2)no1
T/C (dose: 60.0 mg/kg/injection, schedule: Q01DX005 (ip), vehicle: Klucel + Tween-80): 97 % of control
T/C (dose: 120.0 mg/kg/injection, schedule: Q01DX005 (ip), vehicle: Klucel + Tween-80): 100 % of control
T/C (dose: 240.0 mg/kg/injection, schedule: Q01DX005 (ip), vehicle: Klucel + Tween-80): 103 % of control

CCOc1ccc(-n2c(=O)c(N=Nc3ccccc3C)c(O)n(-c3ccc(Br)cc3)c2=S)cc1
T/C [4]: 98 % of control
T/C [5]: 92 % of control
T/C [6]: 105 % of control

Clc1ccc(Nc2ncnc3oc(-c4ccccc4)c(-c4ccccc4)c23)cc1
T/C [7]: 100 % of control
T/C [8]: 97 % of control
T/C [9]: 90 % of control

Nc1nc(-c2cccc3ccccc23)cc2ccccc12
T/C (dose: 12.5 mg/kg/injection, schedule: Q01DX009 (ip), vehicle: water): 124 % of control
T/C (dose: 100.0 mg/kg/injection, schedule: Q01DX009 (ip), vehicle: water): 150 % of control
T/C (dose: 200.0 mg/kg/injection, schedule: Q01DX009 (ip), vehicle: water): 166 % of control

CCc1cccc(CC)c1NC(=O)OCCN(CC)CC
T/C [7]: 100 % of control
T/C [8]: 94 % of control

Nc1nnc(-c2ccc(-c3nnc(N)o3)cc2)o1
T/C [7]: 98 % of control
T/C [8]: 100 % of control
T/C [9]: 100 % of control

CCCCCCCCCCN(CCCCCCCCCC)CC(=O)c1ccc2cc(Br)c3ccccc3c2c1
T/C (dose: 25.0 mg/kg/injection, schedule: Q01DX005 (ip), vehicle: Klucel (hydroxypropylcellulose) (HPC)): 96 % of control
T/C [10]: 89 % of control
T/C [11]: 98 % of control

CCC/C(=N\O)C(O)(CCC)CCC
T/C [12]: 89 % of control
T/C [13]: 89 % of control
T/C [14]: 89 % of control

O=C1C(CO)=C[C@H](O)[C@@]2(CO)O[C@@H]12
T/C (dose: 6.25 mg/kg/injection, schedule: Q04DX002 (ip), vehicle: saline): 100 % of control
T/C (dose: 12.5 mg/kg/injection, schedule: Q04DX002 (ip), vehicle: saline): 107 % of control
T/C (dose: 25.0 mg/kg/injection, schedule: Q04DX002 (ip), vehicle: saline): 107 % of control
T/C (dose: 50.0 mg/kg/injection, schedule: Q04DX002 (ip), vehicle: saline): 100 % of control
T/C (dose: 100.0 mg/kg/injection, schedule: Q04DX002 (ip), vehicle: saline): 121 % of control

COC(=O)C1(F)C(=O)NC(=O)NC1OC (configuration not stated)
T/C (dose: 30.0 mg/kg/injection, schedule: Q04DX002 (ip), vehicle: Klucel (hydroxypropylcellulose) (HPC)): 117 % of control
T/C (dose: 60.0 mg/kg/injection, schedule: Q04DX002 (ip), vehicle: Klucel (hydroxypropylcellulose) (HPC)): 118 % of control and 123 % of control
T/C (dose: 240.0 mg/kg/injection, schedule: Q04DX002 (ip), vehicle: Klucel (hydroxypropylcellulose) (HPC)): 157 % of control
T/C (dose: 480.0 mg/kg/injection, schedule: Q04DX002 (ip), vehicle: Klucel (hydroxypropylcellulose) (HPC)): 164 % of control

Cc1ccc(-c2ccc(Nc3c4ccccc4nc4ccccc34)cc2)cn1
T/C (dose: 25.0 mg/kg/injection, schedule: Q01DX005 (ip), vehicle: distilled water + Tween-80): 106 % of control
T/C (dose: 50.0 mg/kg/injection, schedule: Q01DX005 (ip), vehicle: distilled water + Tween-80): 117 % of control
T/C (dose: 100.0 mg/kg/injection, schedule: Q01DX005 (ip), vehicle: distilled water + Tween-80): 151 % of control
T/C (dose: 200.0 mg/kg/injection, schedule: Q01DX005 (ip), vehicle: distilled water + Tween-80): 193 % of control

O=S(=O)(O)CCCCS(=O)(=O)O
T/C [15]: 99 % of control
T/C [16]: 108 % of control
T/C [17]: 110 % of control

Nc1nc(-c2ccccc2)nc2sc3c(c12)CCCC3
T/C [10]: 104 % of control
T/C [11]: 106 % of control
T/C (dose: 200.0 mg/kg/injection, schedule: Q01DX005 (ip), vehicle: Klucel (hydroxypropylcellulose) (HPC)): 103 % of control

CCN(c1ccccc1)c1nsc(Cl)n1
T/C [12]: 101 % of control
T/C [13]: 104 % of control
T/C [14]: 104 % of control

CN1CCC(OC(N)=O)CC1
T/C [16]: 100 % of control
T/C [17]: 100 % of control
T/C (dose: 400.0 mg/kg/injection, schedule: Q01DX009 (ip), vehicle: saline): 104 % of control

CCCCCCOc1cc(N)ccc1C(=O)O
T/C (dose: 100.0 mg/kg/injection, schedule: Q04DX002 (ip), vehicle: saline with Tween-80): 98 % of control
T/C (dose: 200.0 mg/kg/injection, schedule: Q04DX002 (ip), vehicle: saline with Tween-80): 100 % of control
T/C (dose: 400.0 mg/kg/injection, schedule: Q04DX002 (ip), vehicle: saline with Tween-80): 92 % of control

CCC1(c2ccccc2)Nc2ccccc2C1=Nc1ccccc1 (configuration not stated)
T/C (dose: 50.0 mg/kg/injection, schedule: Q04DX003 (ip), vehicle: saline with Tween-80): 100 % of control
T/C (dose: 100.0 mg/kg/injection, schedule: Q04DX003 (ip), vehicle: saline with Tween-80): 99 % of control
T/C (dose: 200.0 mg/kg/injection, schedule: Q04DX003 (ip), vehicle: saline with Tween-80): 90 % of control

Cc1ccc(NC(=O)Oc2ccc(OCc3ccccc3)cc2)c([N+](=O)[O-])c1
T/C [12]: 99 % of control
T/C [13]: 97 % of control
T/C [14]: 95 % of control

CSC(=N\N=C\c1cccs1)/N=C/N(C)C
T/C [7]: 92 % of control
T/C [8]: 99 % of control
T/C [9]: 97 % of control

COC(=O)CCC(=O)C(C#N)c1nc2ccccc2s1 (configuration not stated)
T/C [1]: 94 % of control
T/C [2]: 92 % of control
T/C [3]: 92 % of control

CCOC(=O)Oc1ccc(/C=N/NC(N)=S)nc1
T/C [12]: 163 % of control
T/C [13]: 93 % of control

Clc1ccc(SCc2csc(-c3ccc(Cl)cc3)n2)cc1
T/C [15]: 104 % of control
T/C [16]: 111 % of control
T/C [17]: 104 % of control

CN(C)c1ccc(/C=c2\[nH]c(=O)/c(=C\c3ccc(N(C)C)cc3)[nH]c2=O)cc1
T/C (dose: 12.5 mg/kg/injection, schedule: Q01DX001 (ip), vehicle: saline with Tween-80): 97 % of control
T/C (dose: 25.0 mg/kg/injection, schedule: Q01DX001 (ip), vehicle: saline with Tween-80): 99 % of control
T/C (dose: 50.0 mg/kg/injection, schedule: Q01DX001 (ip), vehicle: saline with Tween-80): 99 % of control
T/C [12]: 98 % of control
T/C [4]: 99 % of control
T/C [13]: 90 % of control
T/C [14]: 87 % of control
T/C (dose: 400.0 mg/kg/injection, schedule: Q01DX009 (ip), vehicle: saline with Tween-80): 90 % of control

CCCCCCCCC(=O)CCCC
T/C [12]: 109 % of control
T/C [13]: 122 % of control
T/C (dose: 100.0 mg/kg/injection, schedule: Q04DX003 (ip), vehicle: saline): 100 % of control
T/C (dose: 200.0 mg/kg/injection, schedule: Q04DX003 (ip), vehicle: saline): 113 % of control

COC(=O)c1c2cc(C(C)(C)C)cc-2c(N(C)C)nc(N(C)C)c1C(=O)OC
T/C (dose: 60.0 mg/kg/injection, schedule: Q01DX005 (ip), vehicle: Klucel (hydroxypropylcellulose) (HPC)): 95 % of control
T/C (dose: 120.0 mg/kg/injection, schedule: Q01DX005 (ip), vehicle: Klucel (hydroxypropylcellulose) (HPC)): 95 % of control

COC(=O)[CH](C[N+](=O)[O-])[Hg][Cl] (configuration not stated)
T/C (dose: 3.12 mg/kg/injection, schedule: Q01DX009 (ip), vehicle: saline with Tween-80): 100 % of control
T/C (dose: 6.25 mg/kg/injection, schedule: Q01DX009 (ip), vehicle: saline with Tween-80): 100 % of control
T/C (dose: 12.5 mg/kg/injection, schedule: Q01DX009 (ip), vehicle: saline with Tween-80): 95 % of control

CC(CC(=O)O)(CC(=O)O)CC(=O)O
T/C [12]: 110 % of control
T/C [13]: 101 % of control
T/C [14]: 97 % of control

CN(C)CCP(=O)(O)O
T/C [4]: 95 % of control
T/C [5]: 100 % of control
T/C [6]: 100 % of control

CC1CN(C(=O)Nc2ccc(Cl)c(Cl)c2)C(=O)O1 (configuration not stated)
T/C (dose: 100.0 mg/kg/injection, schedule: Q04DX003 (ip), vehicle: Klucel (hydroxypropylcellulose) (HPC)): 101 % of control
T/C (dose: 200.0 mg/kg/injection, schedule: Q04DX003 (ip), vehicle: Klucel (hydroxypropylcellulose) (HPC)): 99 % of control
T/C (dose: 400.0 mg/kg/injection, schedule: Q04DX003 (ip), vehicle: Klucel (hydroxypropylcellulose) (HPC)): 100 % of control
